Patent publication US20030119910A1, “Therapeutic or preventing agent for diseases caused by decrease in the expression level of klotho protein” (Kyowa Hakko Kogyo Co., Ltd., priority 2001, published 2003)

Key:
Assay type in all cases: in vivo, mouse
[1] = tested on: Klotho protein; experiment: Expression level of Klotho protein in the kidneys of male klotho mutant homozygotes raised on feed; conditions: male homozygous klotho mutant mice, ornithine in feed
Description: The determination of Klotho protein can be carried out by methods such as immune precipitation, Western blotting and enzyme-linked immunosorbent assay (ELISA) using an anti-Klotho protein antibody, and the determination of mRNA for the klotho gene can be carried out by methods such as Northern blot hybridization and reverse transcription-polymerase chain reaction (RT-PCR). The determination methods and methods for obtaining tissue samples, klotho gene, Klotho protein, probe DNA, primers, antibodies, etc. to be used in the determination are described in WO 98/29544.
(§1) Mice carrying a klotho mutation were bred by mating a pair of heterozygous klotho mutant mice provided by Tumor Biology, Pathology, Kyoto University Graduate School of Medicine. Klotho mutant homozygotes, klotho mutant heterozygotes and wild-type mice were confirmed by PCR. Male klotho mutant homozygotes were raised on the feed prepared in Example 1 or the feed prepared in Comparative Example 1 and were intermittently weighed (number of animals: 4/group). The mice were given the powdery feed through a commercially available powder feeder (KN-675 No. 4, Natsume Seisakusho) and filtered running water, both ad libitum. […] The expression level of Klotho protein was expressed as relative values based on the average value of the group raised on the feed of Comparative Example 1 up to the age of 6 weeks as 100.

[2] = tested on: female klotho mutant homozygotes; experiment: Life span of female klotho mutant homozygotes raised on feed; conditions: ornithine in feed
Description: Female klotho mutant homozygotes obtained by the same method as in Example 3 were raised on the feed of Example 1, the feed of Comparative Example 1, the feed of Example 2 or the feed of Comparative Example 2 (number of animals: 4/group) to observe their life span. The number of mice that died before reaching the age of 11 weeks was 0 and 2 in the groups fed on the feed of Example 1 and the feed of Comparative Example 1, respectively, and was 1 and 2 in the groups fed on the feed of Example 2 and the feed of Comparative Example 2, respectively.

[3] = tested on: female klotho mutant homozygotes; experiment: Body weight of female klotho mutant homozygotes raised on feed; conditions: female homozygous individuals, ornithine in feed
Description: as §1
Female klotho mutant homozygotes obtained by the same method as in Example 3 were raised on the feed of Example 1 or the feed of Comparative Example 1 in the same manner as in Example 3 up to the age of 8 weeks, and their body weight was measured. […]
Female klotho mutant homozygotes obtained by the same method as in Example 3 were raised on the feed of Example 2 or the feed of Comparative Example 2 in the same manner as in Example 3 up to the age of 6 weeks, and their body weight was measured. […]

[4] = tested on: male homozygous klotho mutant mice; experiment: Male klotho mutant homozygotes raised on feed: indices of premature aging-like syndrome (blood sugar, serum inorganic phosphorus, body weight); conditions: ornithine in feed
Description: Mice carrying a klotho mutation were bred by mating a pair of heterozygous klotho mutant mice provided by Tumor Biology, Pathology, Kyoto University Graduate School of Medicine. Klotho mutant homozygotes, klotho mutant heterozygotes and wild-type mice were confirmed by PCR. Male klotho mutant homozygotes were raised on the feed prepared in Example 1 or the feed prepared in Comparative Example 1 and were intermittently weighed (number of animals: 4/group). The mice were given the powdery feed through a commercially available powder feeder (KN-675 No. 4, Natsume Seisakusho) and filtered running water, both ad libitum. The mice were raised in an SPF (specific pathogen-free) room kept at a temperature of 24±1° C. and a humidity of 55±10%. The expression level of Klotho protein was expressed as relative values based on the average value of the group raised on the feed of Comparative Example 1 up to the age of 6 weeks as 100.

[5] = tested on: female homozygous klotho mutant mice; experiment: Breeding results of female homozygous klotho mutant mice raised on feed; conditions: ornithine in feed
Description: Male homozygous klotho mutant mice were raised on the feed of Comparative Example 3 and female homozygous klotho mutant mice were raised on the feed of Example 7 or the feed of Comparative Example 2, both to the age of 8 weeks. These male and female mice were mated and their breeding results were compared between the female group fed on the feed of Example 7 and that fed on the feed of Comparative Example 2. During the mating period, the males were transferred into the cages of females and so fed on the same feeds as the respective females.

## NCCC[C@H](N)C(=O)O [ornithine]
[1]
  Effect on expression level of kidney Klotho protein: effective in raising the expression level of kidney Klotho protein
[2]
  Effect on life span: effective in prolonging life span
[3]
  Effect on body weight: weight-increasing effect
[4]
  Effect on premature aging-like syndrome: inhibitory effects on premature aging-like syndrome
[5]
  Effect on breeding result: improved the breeding result
